Source: PMC12377202, “Design, synthesis, and cytotoxic evaluation of quinazoline-based derivatives as VEGER-2 inhibitors: comparative study against EGFR kinase activity, induction of apoptosis, and molecular docking study” (RSC Advances, 2025)

Experiments:
MCF-7 = assay: MTT anti-proliferative assay, MCF-7; type: cell-based, human; conditions: Homo sapiens, MCF7
HepG-2 = assay: MTT anti-proliferative assay, HepG-2; type: cell-based, human; conditions: Homo sapiens, HepG2
K-562 = assay: MTT anti-proliferative assay, K-562; type: cell-based, human; conditions: Homo sapiens, K562
[1] = MTT cytotoxicity against normal cells; type: cell-based, human; conditions: human
HEK-293 = assay: MTT cytotoxicity against normal cells; type: cell-based, human
HepG-2 cells = assay: Cell cycle analysis (PI staining, flow cytometry); type: cell-based, human
Description: In order to cause cytotoxicity, anticancer medicines must stop cell division at specific checkpoints, which are discrete stages of the cell cycle.
Propidium iodide (PI) staining and flow cytometry analysis[74,75] were used to analyze the cell cycle for derivatives 8a and 9a, as illustrated in the SI.
(§1) through Flow cytometric analysis.
(§2) Pellets were collected again and incubated with
(§3) Total RNA from vehicle-treated
(§4) (Thermo Scientific, USA).
(§5) All experiments were performed in […]

caspase-3 = assay: Caspase-3 expression level in HepG-2 cells; type: cell-based, human; conditions: for Caspase-3 ± SE: HepG-2, at IC50 concentrations, control 0.460
Description: (§6) All synthesized compounds were tested at their cytotoxic concentrations in HepG-2 cells for analysis of gene expression levels of apoptotic markers caspase-3, caspase-9, TNF-α, and IL-6 proteins, and only two active compounds were tested for BAX and Bcl-2 proteins.
as §1, §2, §3, §4, §5

caspase-9 = assay: Caspase-9 expression level in HepG-2 cells; type: cell-based, human; conditions: for Caspase-9 ± SE: HepG-2, at IC50 concentrations, control 11.01
Description: as §6, §1, §2, §3, §4, §5

TNF-alpha = TNF-alpha level in HepG-2 cells; type: cell-based, human; conditions: control 43.48
Description: as §6, §1, §2, §3, §4, §5

IL-6R = IL-6R level in HepG-2 cells; type: cell-based, human
Description: as §6, §1, §2, §3, §4, §5

EGFR = EGFR (Homo sapiens, UniProt P00533); assay: EGFR kinase inhibition assay (ELISA kit)
EGFR, sequence (P00533 25-1210): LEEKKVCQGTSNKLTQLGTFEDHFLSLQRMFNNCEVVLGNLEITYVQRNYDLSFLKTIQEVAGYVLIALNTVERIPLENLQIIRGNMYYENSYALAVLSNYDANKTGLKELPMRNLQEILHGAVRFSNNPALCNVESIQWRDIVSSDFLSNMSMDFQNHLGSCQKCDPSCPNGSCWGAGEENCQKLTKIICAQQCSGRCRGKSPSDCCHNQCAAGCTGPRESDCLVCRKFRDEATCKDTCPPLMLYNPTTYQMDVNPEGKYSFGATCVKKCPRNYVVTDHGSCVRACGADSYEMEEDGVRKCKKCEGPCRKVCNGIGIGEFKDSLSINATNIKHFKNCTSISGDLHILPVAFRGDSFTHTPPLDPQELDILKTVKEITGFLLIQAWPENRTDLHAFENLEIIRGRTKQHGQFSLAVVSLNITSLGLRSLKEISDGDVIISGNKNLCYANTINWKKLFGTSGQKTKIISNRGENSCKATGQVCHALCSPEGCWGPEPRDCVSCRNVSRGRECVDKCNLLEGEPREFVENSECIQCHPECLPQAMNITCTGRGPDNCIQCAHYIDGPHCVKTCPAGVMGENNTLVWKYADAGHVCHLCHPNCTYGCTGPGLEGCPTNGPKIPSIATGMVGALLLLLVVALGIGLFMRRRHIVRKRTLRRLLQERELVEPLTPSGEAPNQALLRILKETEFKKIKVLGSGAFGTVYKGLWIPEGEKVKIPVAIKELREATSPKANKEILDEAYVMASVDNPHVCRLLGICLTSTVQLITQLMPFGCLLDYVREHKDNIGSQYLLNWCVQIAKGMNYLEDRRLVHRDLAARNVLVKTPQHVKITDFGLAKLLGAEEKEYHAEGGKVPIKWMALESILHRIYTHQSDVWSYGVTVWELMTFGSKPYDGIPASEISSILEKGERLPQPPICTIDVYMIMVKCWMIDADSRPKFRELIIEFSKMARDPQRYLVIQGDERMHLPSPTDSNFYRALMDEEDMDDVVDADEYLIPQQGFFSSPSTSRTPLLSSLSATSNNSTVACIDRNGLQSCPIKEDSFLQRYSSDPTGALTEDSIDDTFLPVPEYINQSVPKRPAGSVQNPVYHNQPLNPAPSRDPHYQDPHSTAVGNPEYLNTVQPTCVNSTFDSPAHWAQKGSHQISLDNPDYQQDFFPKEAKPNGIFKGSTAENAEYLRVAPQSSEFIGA

VEGFR-2 = VEGFR-2 (Homo sapiens, UniProt P35968); assay: In vitro VEGFR-2 inhibitory assay (ELISA kit); conditions: VEGFR-2 kinase
VEGFR-2, sequence (P35968 20-1356): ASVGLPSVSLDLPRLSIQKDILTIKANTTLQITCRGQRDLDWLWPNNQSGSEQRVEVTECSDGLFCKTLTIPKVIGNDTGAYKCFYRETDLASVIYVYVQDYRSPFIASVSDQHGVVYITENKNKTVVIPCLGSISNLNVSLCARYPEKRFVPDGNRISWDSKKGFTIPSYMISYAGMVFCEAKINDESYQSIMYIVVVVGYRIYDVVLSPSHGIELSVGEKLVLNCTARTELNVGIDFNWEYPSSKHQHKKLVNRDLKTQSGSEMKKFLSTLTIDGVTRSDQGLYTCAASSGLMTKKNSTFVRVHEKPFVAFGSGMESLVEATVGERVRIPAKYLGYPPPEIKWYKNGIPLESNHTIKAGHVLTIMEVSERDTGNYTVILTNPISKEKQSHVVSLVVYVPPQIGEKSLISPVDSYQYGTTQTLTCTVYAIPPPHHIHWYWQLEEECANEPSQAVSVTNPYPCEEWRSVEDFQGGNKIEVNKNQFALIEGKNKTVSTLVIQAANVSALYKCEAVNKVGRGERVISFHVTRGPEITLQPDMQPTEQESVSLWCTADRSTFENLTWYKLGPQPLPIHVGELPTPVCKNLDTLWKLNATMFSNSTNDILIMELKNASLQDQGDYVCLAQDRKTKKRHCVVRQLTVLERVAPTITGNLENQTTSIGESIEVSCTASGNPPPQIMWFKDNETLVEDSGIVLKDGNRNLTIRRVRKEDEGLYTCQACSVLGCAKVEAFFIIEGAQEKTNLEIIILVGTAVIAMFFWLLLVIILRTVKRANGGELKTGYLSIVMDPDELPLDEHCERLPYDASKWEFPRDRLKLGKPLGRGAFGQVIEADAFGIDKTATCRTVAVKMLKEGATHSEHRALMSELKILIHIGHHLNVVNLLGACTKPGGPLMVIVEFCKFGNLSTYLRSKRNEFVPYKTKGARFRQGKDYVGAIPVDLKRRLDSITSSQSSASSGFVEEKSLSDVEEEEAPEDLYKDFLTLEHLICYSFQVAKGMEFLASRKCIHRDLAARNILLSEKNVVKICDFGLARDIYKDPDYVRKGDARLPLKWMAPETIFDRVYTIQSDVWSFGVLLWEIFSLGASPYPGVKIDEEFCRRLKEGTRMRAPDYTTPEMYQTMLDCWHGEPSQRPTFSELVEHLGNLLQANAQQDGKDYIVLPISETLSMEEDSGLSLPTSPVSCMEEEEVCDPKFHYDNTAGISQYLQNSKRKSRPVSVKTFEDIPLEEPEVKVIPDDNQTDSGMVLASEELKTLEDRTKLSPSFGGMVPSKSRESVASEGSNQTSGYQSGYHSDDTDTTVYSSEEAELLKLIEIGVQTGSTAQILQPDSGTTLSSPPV

O=C(Cn1cnc2cc([N+](=O)[O-])ccc2c1=O)Nc1ccccc1Cl [9b, N-(2-Chlorophenyl)-2-(7-nitro-4-oxoquinazolin-3(4H)-yl)acetamide]
viability at 0.195 µmol (MCF-7; MCF-7, 0.195 umol): 52.1%
cytotoxicity at 0.195 µmol (MCF-7; MCF-7, 0.195 umol, read-out: Toxicity %): 47.9%
viability at 0.391 µmol (MCF-7; MCF-7, 0.391 umol): 22.7%
cytotoxicity at 0.391 µmol (MCF-7; MCF-7, 0.391 umol, read-out: Toxicity %): 77.3%
viability at 0.781 µmol (MCF-7; MCF-7, 0.781 umol): 15.6%
cytotoxicity at 0.781 µmol (MCF-7; MCF-7, 0.781 umol, read-out: Toxicity %): 84.4%
viability at 1.563 µmol (MCF-7; MCF-7, 1.563 umol): 11.9%
cytotoxicity at 1.563 µmol (MCF-7; MCF-7, 1.563 umol, read-out: Toxicity %): 88.1%
viability at 3.125 µmol (MCF-7; MCF-7, 3.125 umol): 9.45%
cytotoxicity at 3.125 µmol (MCF-7; MCF-7, 3.125 umol, read-out: Toxicity %): 90.5%
viability at 6.25 µmol (MCF-7; MCF-7, 6.25 umol): 8%
cytotoxicity at 6.25 µmol (MCF-7; MCF-7, 6.25 umol, read-out: Toxicity %): 92%
viability at 12.5 µmol (MCF-7; MCF-7, 12.5 umol): 7.26%
cytotoxicity at 12.5 µmol (MCF-7; MCF-7, 12.5 umol, read-out: Toxicity %): 92.7%
viability at 25 µmol (MCF-7; MCF-7, 25 umol): 6.77%
cytotoxicity at 25 µmol (MCF-7; MCF-7, 25 umol, read-out: Toxicity %): 93.2%
IC50 (MCF-7; MTT, MCF-7, read-out: Cytotoxicity against cancer cells IC50 MCF-7): 209 ± 3.7 nM
viability at 0.195 µg/mL (HepG-2; HepG-2, 0.195 ug/ml): 49.7%
cytotoxicity at 0.195 µg/mL (HepG-2; HepG-2, 0.195 ug/ml, read-out: Toxicity %): 50.3%
viability at 0.391 µg/mL (HepG-2; HepG-2, 0.391 ug/ml): 37.3%
cytotoxicity at 0.391 µg/mL (HepG-2; HepG-2, 0.391 ug/ml, read-out: Toxicity %): 62.7%
viability at 0.781 µg/mL (HepG-2; HepG-2, 0.781 ug/ml): 27.7%
cytotoxicity at 0.781 µg/mL (HepG-2; HepG-2, 0.781 ug/ml, read-out: Toxicity %): 72.3%
viability at 1.563 µg/mL (HepG-2; HepG-2, 1.563 ug/ml): 13%
cytotoxicity at 1.563 µg/mL (HepG-2; HepG-2, 1.563 ug/ml, read-out: Toxicity %): 87%
viability at 3.125 µg/mL (HepG-2; HepG-2, 3.125 ug/ml): 9.93%
cytotoxicity at 3.125 µg/mL (HepG-2; HepG-2, 3.125 ug/ml, read-out: Toxicity %): 90.1%
viability at 6.25 µg/mL (HepG-2; HepG-2, 6.25 ug/ml): 7.8%
cytotoxicity at 6.25 µg/mL (HepG-2; HepG-2, 6.25 ug/ml, read-out: Toxicity %): 92.2%
viability at 12.5 µg/mL (HepG-2; HepG-2, 12.5 ug/ml): 6.7%
cytotoxicity at 12.5 µg/mL (HepG-2; HepG-2, 12.5 ug/ml, read-out: Toxicity %): 93.3%
viability at 25 µg/mL (HepG-2; HepG-2, 25 ug/ml): 5.93%
cytotoxicity at 25 µg/mL (HepG-2; HepG-2, 25 ug/ml, read-out: Toxicity %): 94.1%
IC50 (HepG-2; MTT, HepG-2, read-out: Cytotoxicity against cancer cells IC50 HepG-2): 194 ± 6.6 nM
viability at 0.195 µmol (K-562; K-562, 0.195 umol): 47.5%
cytotoxicity at 0.195 µmol (K-562; K-562, 0.195 umol, read-out: Toxicity %): 52.5%
viability at 0.391 µmol (K-562; K-562, 0.391 umol): 37.8%
cytotoxicity at 0.391 µmol (K-562; K-562, 0.391 umol, read-out: Toxicity %): 62.2%
viability at 0.781 µmol (K-562; K-562, 0.781 umol): 25.5%
cytotoxicity at 0.781 µmol (K-562; K-562, 0.781 umol, read-out: Toxicity %): 74.5%
viability at 1.563 µmol (K-562; K-562, 1.563 umol): 13.6%
cytotoxicity at 1.563 µmol (K-562; K-562, 1.563 umol, read-out: Toxicity %): 86.4%
viability at 3.125 µmol (K-562; K-562, 3.125 umol): 8.05%
cytotoxicity at 3.125 µmol (K-562; K-562, 3.125 umol, read-out: Toxicity %): 92%
viability at 6.25 µmol (K-562; K-562, 6.25 umol): 8.5%
cytotoxicity at 6.25 µmol (K-562; K-562, 6.25 umol, read-out: Toxicity %): 91.5%
viability at 12.5 µmol (K-562; K-562, 12.5 umol): 6.86%
cytotoxicity at 12.5 µmol (K-562; K-562, 12.5 umol, read-out: Toxicity %): 93.1%
viability at 25 µmol (K-562; K-562, 25 umol): 6.2%
cytotoxicity at 25 µmol (K-562; K-562, 25 umol, read-out: Toxicity %): 93.8%
IC50 (K-562; MTT, K-562, read-out: Cytotoxicity against cancer cells IC50 K-562): 190 ± 3.7 nM
IC50 at 3 days ([1]; HEK-293 cells (normal human embryonic kidney cells), MTT, HEK-293, read-out: Cytotoxicity against normal cell IC50 HEK-293): 1747 ± 2.6 nM
viability at 3 days, 0.195 umol/ml ([1]; HEK-293 cells (normal human embryonic kidney), HEK-293, 0.195 umol/ml): 98.1%
viability at 3 days, 0.391 umol/ml ([1]; HEK-293 cells (normal human embryonic kidney), HEK-293, 0.391 umol/ml): 76.9%
viability at 3 days, 0.781 umol/ml ([1]; HEK-293 cells (normal human embryonic kidney), HEK-293, 0.781 umol/ml): 62.1%
viability at 3 days, 1.563 umol/ml ([1]; HEK-293 cells (normal human embryonic kidney), HEK-293, 1.563 umol/ml): 52.7%
viability at 3 days, 3.125 umol/ml ([1]; HEK-293 cells (normal human embryonic kidney), HEK-293, 3.125 umol/ml): 29.7%
viability at 3 days, 6.25 umol/ml ([1]; HEK-293 cells (normal human embryonic kidney), HEK-293, 6.25 umol/ml): 17.2%
viability at 3 days, 12.5 umol/ml ([1]; HEK-293 cells (normal human embryonic kidney), HEK-293, 12.5 umol/ml): 8.78%
viability at 3 days, 25 umol/ml ([1]; HEK-293 cells (normal human embryonic kidney), HEK-293, 25 umol/ml): 6.3%
Toxicity % (HEK-293; HEK-293, 0.195 umol/ml): 1.903%
Toxicity % (HEK-293; HEK-293, 0.391 umol/ml): 23.13%
Toxicity % (HEK-293; HEK-293, 0.781 umol/ml): 37.87%
Toxicity % (HEK-293; HEK-293, 1.563 umol/ml): 47.29%
Toxicity % (HEK-293; HEK-293, 3.125 umol/ml): 70.33%
Toxicity % (HEK-293; HEK-293, 6.25 umol/ml): 82.82%
Toxicity % (HEK-293; HEK-293, 12.5 umol/ml): 91.22%
Toxicity % (HEK-293; HEK-293, 25 umol/ml): 93.7%
selectivity, cancer cells vs normal human kidney cells (fold) (HEK-293; HEK-293 vs K-562): 9 fold
selectivity, cancer cells vs normal human kidney cells (fold) (HEK-293; HEK-293 vs MCF-7): 8.4 fold
IC50 (HEK-293; Homo sapiens, HEK293, raw data, HEK-293): 1750 nM
% Sub-G1 (HepG-2 cells; HepG-2, cytotoxic concentration, 24 h, control 68.12): 94.68%
% S (HepG-2 cells; HepG-2, control 2.23): 0.19%
% G2/M (HepG-2 cells; HepG-2, control 6.52): 0.24%
% G1 (HepG-2 cells; HepG-2, control 23.14): 4.89%
Caspase-3 ± SE (caspase-3): 1.08 ± 0.028 ng/mL
Caspase-3 ± SE (caspase-3; listed as N5): 1.08 ng/mL
caspase-3 expression level, fold increase (caspase-3; HepG-2, vs control cells): 2.35 fold
Caspase-9 ± SE (caspase-9): 7.31 ± 0.93 ng/L
Caspase-9 ± SE (caspase-9; listed as N5): 7.31 ng/L
caspase-9 expression level, fold increase (caspase-9; HepG-2, vs control cells): no apoptotic effect
TNF-alpha ±SE (TNF-alpha; HepG-2, at IC50 concentrations): 27.34 ± 1.95 ng/L
TNF-alpha ±SE (TNF-alpha; raw data, HepG2): 14.37 ng/L
IL-6R ± SE (IL-6R; HepG-2, at IC50 concentrations, control 44.10): 28.78 ± 1.23 ng/L
IL-6R protein level (IL-6R; HepG-2, control 44.10%): 28.78 ng/L
IL-6 ±SE (IL-6R; raw data, HepG2, control 44.10): 19.54 ng/L
Activity % (EGFR; HepG2): 52.262%
Inhibition % (EGFR; HepG2): 47.738%
Activity % (EGFR; K-562): 47.456%
Inhibition % (EGFR; K-562): 52.544%
Activity % (EGFR; MCF7): 25.292%
Inhibition % (EGFR; MCF7): 74.708%
Activity % (VEGFR-2; HepG2): 33.564%
Inhibition % (VEGFR-2; HepG2): 66.436%
Activity % (VEGFR-2; K-562): 56.948%
Inhibition % (VEGFR-2; K-562): 43.052%
Activity % (VEGFR-2; MCF7): 80.680%
Inhibition % (VEGFR-2; MCF7): 19.320%
